According to patent US6743940B2, “4-aminobut-2-ynecarboxylic acid derivatives” (Ciba Specialty Chemicals Corporation, priority 2000, dated 2004):
Read-outs that look alike come from different tables or passages of the source.

What was measured:
Assay in all cases: Minimum Inhibitory Concentration (MIC) in the agar incorporation test
Assay type in all cases: cell-based
[1] = test system: Staphylococcus aureus ATCC 9144; details: 24 hours at 37° C.
Protocol: (§1) Determination of the Minimum Inhibitory Concentration (MIC) in the Agar Incorporation Test (MIC Test) [table] Test Principle 0.3 ml of each dilution step is mixed with 15 ml of still liquid nutrient medium. After the nutrient medium has solidified, 10 μl of each of the following organism dilutions of the test strains in 0.85% NaCl solution is dotted onto the agar medium: [table] The plates are incubated for 24 hours at 37° C. (A. niger 3 days at 28° C.) and then the highest dilution (lowest concentration) of the test substance at which no more growth is observed (corresponds to the MIC) is determined.

[2] = test system: Aspergillus niger ATCC 6275; details: ATCC6275, 72 h, 3 days at 28° C.
Protocol: as §1

[3] = test system: Escherichia coli NCTC 8196; details: NCTC8196, Table 1, casein-soybean flour-peptone agar, 24 hours at 37° C., dilution series 1000 ppm to 10 ppm
Protocol: as §1

[4] = test system: Pseudomonas aeruginosa CIP A-22; details: CIPA22, Table 1, casein-soybean flour-peptone agar, 24 hours at 37° C., dilution series 1000 ppm to 10 ppm
Protocol: as §1

[5] = test system: Candida albicans ATCC 10231; details: ATCC10231, Table 1, casein-soybean flour-peptone agar, 24 hours at 37° C., dilution series 1000 ppm to 10 ppm
Protocol: as §1

[6] = ATCC9144, Table 2, MIC test, read-out: Further microbiological test results, Staphylococcus aureus ATCC 9144
[7] = Table 2, MIC test, read-out: Further microbiological test results, Aspergillus niger ATCC 6275

## CCCN(CC#CC(=O)OC)c1ccc(OC)cc1 [Compound of formula (111)]
[1]; [6]
  MIC: 63 µg/mL

## CCN(CC#CC(=O)OC)c1cccc(C)c1 [Compound of formula (115)]
[2]; [7]
  MIC: 8 µg/mL

## CCCN(CC#CC(=O)OC)c1cccc(C)c1 [Compound of formula (106)]
[2]; [7]
  MIC: 125 µg/mL
[1]; [6]
  MIC: 125 µg/mL

## CCCCCN(CC#CC(=O)OC)c1ccccc1 [Compound of formula (110)]
[2]; [7]
  MIC: 125 µg/mL
[1]; [6]
  MIC: 63 µg/mL

## COC(=O)C#CCNc1ccc(C)cc1 [Compound of formula (118)]
[2]; [7]
  MIC: 125 µg/mL
[1]; [6]
  MIC: 125 µg/mL

## CCOC(=O)C#CCNc1ccccc1 [Compound of formula (116)]
[2]; [7]
  MIC: 125 µg/mL
[1]; [6]
  MIC: 125 µg/mL

## CCCCN(CC#CC(=O)OC)c1cccc(C)c1 [Compound of formula (113)]
[1]; [6]
  MIC: 125 µg/mL

## CCCCN(CC#CC(=O)OC)c1ccccc1 [Compound of formula (107)]
[2]; [7]
  MIC: 63 µg/mL
[1]; [6]
  MIC: 63 µg/mL

## CCN(CC#CC(=O)OC)c1ccc(OC)cc1 [Compound of formula (114)]
[2]; [7]
  MIC: 60 µg/mL
[1]; [6]
  MIC: 60 µg/mL

## CCOC(=O)C#CCNc1ccc(OC)cc1 [Compound of formula (117)]
[2]; [7]
  MIC: 500 µg/mL
[1]; [6]
  MIC: 500 µg/mL

## COC(=O)CC#CCN(C)c1ccccc1 [Compound of formula (101), 4-(N-methyl-phenylamino)-but-2-yne-carboxylic Acid Methyl Ester]
[2]; Table 1, Sabouraud 4% glucose-agar, dilution series 1000 ppm to 10 ppm, read-out: Minimum Inhibitory Concentration (MIC), Aspergillus niger ATCC 6275
  MIC: 62.5 µg/mL
[3]
  MIC: 125 µg/mL
[4]
  MIC: > 1000 µg/mL
[5]
  MIC: 62.5 µg/mL
[1]; ATCC9144, Table 1, casein-soybean flour-peptone agar, dilution series 1000 ppm to 10 ppm, read-out: Minimum Inhibitory Concentration (MIC), Staphylococcus aureus ATCC 9144
  MIC: 62.5 µg/mL

## CCCN(CC#CC(=O)OCC)c1cccc(OC)c1 [Compound of formula (109)]
[1]; [6]
  MIC: 1000 µg/mL

## CCCCCN(CC#CC(=O)OC)c1cccc(OC)c1 [Compound of formula (112)]
[1]; [6]
  MIC: 63 µg/mL

## CCCN(CC#CC(=O)OC)c1cccc(OC)c1 [Compound of formula (108)]
[2]; [7]
  MIC: 125 µg/mL
[1]; [6]
  MIC: 63 µg/mL
